In assay [1] the target is CSF1R (Ba/F3 cells) (Homo sapiens, UniProt P07333). Briefly: BaF3 viability assay, CSF1R-dependent cells. Format: cell-based. The following applies: read-out: Cellular CSF1R activity by Ba/F3 assay (IC50). From the text:
(§1) In this system, IL-3-dependent Ba/F3 cells are modified to express an activated recombinant kinase (in the present case Axl, Mer and CSF1R). Following removal of IL-3, the modified cells are dependent on the activity of the recombinant kinase for survival and proliferation. Inhibition of such kinase(s) through test compounds reduces survival and proliferation of the cells.
(§2) Cell lines were maintained in growth media (GM) consisting of RPMI 1640 supplemented with 10% FBS. Cells in logarithmic-phase growth were harvested and 5,000 cells were distributed into each well of a 384-well plate in 50 μl GM. Parental cells (or experimental assays where specified) were further supplemented with 2 ng/ml IL-3 to support cell growth and survival. Fifty nanoliters of the indicated reference standard or experimental compound were added to appropriate wells (in duplicate) and the cells were cultured for 48 h at 37° C./5% CO2. Viability was determined by adding 10 μl Cell Titer Glo and measuring luminescence, which is reported as relative light units (RLU) measured in counts per second. The following calculations and formulas are used for data analysis using GraphPad Prism software: The curve fitting was made using the Dose response curves-Inhibition.

Assay [2] concerns the target T1, Axl (Ba/F3 cells) (Homo sapiens, UniProt P30530).
T1 sequence (P30530 1-894): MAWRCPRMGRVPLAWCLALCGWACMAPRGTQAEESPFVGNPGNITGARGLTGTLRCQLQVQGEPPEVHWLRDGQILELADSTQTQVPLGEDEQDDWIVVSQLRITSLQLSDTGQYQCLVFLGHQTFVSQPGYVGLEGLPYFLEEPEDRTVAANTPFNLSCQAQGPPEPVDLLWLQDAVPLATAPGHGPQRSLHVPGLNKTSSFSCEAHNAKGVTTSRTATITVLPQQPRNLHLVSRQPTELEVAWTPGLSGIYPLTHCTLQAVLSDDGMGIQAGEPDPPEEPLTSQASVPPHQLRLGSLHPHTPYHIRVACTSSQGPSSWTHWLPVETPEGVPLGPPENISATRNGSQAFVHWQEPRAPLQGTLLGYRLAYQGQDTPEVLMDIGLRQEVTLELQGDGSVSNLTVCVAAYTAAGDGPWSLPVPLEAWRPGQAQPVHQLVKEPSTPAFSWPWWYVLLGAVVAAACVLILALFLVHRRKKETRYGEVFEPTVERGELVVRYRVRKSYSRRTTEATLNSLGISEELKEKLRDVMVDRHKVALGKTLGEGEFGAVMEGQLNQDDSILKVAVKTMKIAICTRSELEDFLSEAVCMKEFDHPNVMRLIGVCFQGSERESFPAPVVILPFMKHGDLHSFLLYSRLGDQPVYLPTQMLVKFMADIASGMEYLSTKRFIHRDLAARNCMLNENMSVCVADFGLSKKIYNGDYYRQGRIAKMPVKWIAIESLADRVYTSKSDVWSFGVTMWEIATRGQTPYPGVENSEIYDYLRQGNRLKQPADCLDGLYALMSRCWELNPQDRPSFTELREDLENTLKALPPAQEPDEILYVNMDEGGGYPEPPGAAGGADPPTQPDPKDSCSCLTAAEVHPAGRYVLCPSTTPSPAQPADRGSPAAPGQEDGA
Nature of the assay: BaF3 viability assay, Axl-dependent cells. Format: cell-based. The following applies: read-out: Cellular Axl activity by Ba/F3 assay (IC50).
From the text: as §1, §2

Sequence of CSF1R (Ba/F3 cells) (P07333 whole entry, change not shown): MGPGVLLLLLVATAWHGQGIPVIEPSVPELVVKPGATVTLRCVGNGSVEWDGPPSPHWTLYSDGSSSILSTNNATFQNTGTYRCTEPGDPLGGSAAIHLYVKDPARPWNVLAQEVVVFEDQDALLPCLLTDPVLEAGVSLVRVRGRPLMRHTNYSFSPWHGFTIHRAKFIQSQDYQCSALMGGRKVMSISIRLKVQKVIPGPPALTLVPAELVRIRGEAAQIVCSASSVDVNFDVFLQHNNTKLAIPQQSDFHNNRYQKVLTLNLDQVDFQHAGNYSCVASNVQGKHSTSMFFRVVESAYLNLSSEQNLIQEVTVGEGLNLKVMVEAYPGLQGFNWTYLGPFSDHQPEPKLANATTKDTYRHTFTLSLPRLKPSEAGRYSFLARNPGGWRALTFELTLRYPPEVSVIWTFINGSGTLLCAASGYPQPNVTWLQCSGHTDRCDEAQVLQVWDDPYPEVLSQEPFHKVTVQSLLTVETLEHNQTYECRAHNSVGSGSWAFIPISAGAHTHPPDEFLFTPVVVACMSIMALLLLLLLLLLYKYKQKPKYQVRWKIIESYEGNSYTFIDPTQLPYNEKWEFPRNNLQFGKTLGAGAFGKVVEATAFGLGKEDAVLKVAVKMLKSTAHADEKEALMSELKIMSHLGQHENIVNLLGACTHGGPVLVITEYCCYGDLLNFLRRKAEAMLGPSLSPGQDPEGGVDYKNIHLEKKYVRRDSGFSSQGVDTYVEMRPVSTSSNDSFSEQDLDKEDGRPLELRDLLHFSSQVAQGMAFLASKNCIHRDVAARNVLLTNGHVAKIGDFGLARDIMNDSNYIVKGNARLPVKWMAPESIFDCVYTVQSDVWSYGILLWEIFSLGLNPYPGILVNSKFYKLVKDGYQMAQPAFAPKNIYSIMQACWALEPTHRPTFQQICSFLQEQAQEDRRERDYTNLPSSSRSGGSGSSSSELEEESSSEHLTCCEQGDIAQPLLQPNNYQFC

With `CCCn1cc(OCCC(O)CO)c(C(=O)Nc2ccc(Oc3ccnc4cc(OC)c(OC)cc34)cn2)n1` (stereo not drawn) [Compound 15], the GI50 was 1 to 10 µM in assay [1] and less than 1 µM in assay [2].

On to `COc1cc2nccc(Oc3ccc(NC(=O)c4nn(CC(C)O)cc4OCC(F)(F)F)nc3)c2cc1OC` (stereo not drawn) [Compound 17], for which the GI50 in assay [1] and in assay [2] was less than 1 µM throughout.

In the case of `COc1cc2nccc(Oc3ccc(NC(=O)c4nn(CCCO)cc4OCC(F)(F)F)nc3)c2cc1OC` [Compound 18], the GI50 in assay [1] and in assay [2] was less than 1 µM in each case.

For `COc1cc2nccc(Oc3ccc(NC(=O)c4nn(C[C@@H](C)O)cc4OCC(F)(F)F)nc3)c2cc1OC` [Compound 29], the GI50 in assay [1] and in assay [2] was less than 1 µM throughout.

Turning to `COc1cc2nccc(Oc3ccc(NC(=O)c4nn(C[C@H](C)O)cc4OCC(F)(F)F)nc3)c2cc1OC` [Compound 30], the GI50 in assay [1] and in assay [2] was less than 1 µM in each case.

Turning to `CCCn1cc(OC(C)C)c(C(=O)Nc2ccc(Oc3ccnc4cc(OC)c(OC(F)(F)F)cc34)c(F)c2)n1` [Compound 35], the values for the GI50 in assay [1] and in assay [2] were 1 to 10 µM and no less than 10 µM, respectively.

Source of the values: US12162858B2, “Quinoline derivatives as inhibitors of AXL/MER RTK and CSF1R” (QURIENT CO., LTD., priority 2018, dated 2024).
